Experimental data taken from the supplement of paper PMC11208160.

Assay: recombinant barcode read abundance after kanamycin selection (control-corrected) (log10(CPM+1)); higher = more efficient recombination; sequences stand for … in AGTGCAGAGAAAATCGGCCAGTTTTCTCTGCCTGCAGTCCGCATGCCGT…AGATTTATGCAGCGGACTGCCTTTCTCCCAAAGTGATAAACCGGACAGTATCATGGACCGGTTTTCCCGGTAATCCGTATTTGCAAGGTTGGTTTCACT; site = the 11-nt target
Method in brief: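 Values are log10(CPM+1) from a pooled E. coli screen of targets paired with IS621 bridge RNA target-binding loops. Recombination efficiency here means counts per million of recombinant-junction barcodes, averaged and control-corrected. Plates were chloramphenicol/ampicillin LB agar for the control and chloramphenicol/ampicillin/kanamycin with 0.1 mM IPTG, two replicates each.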
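Also: IS621 recombinase and bridge RNA in Escherichia coli cells.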

Row | Sequence | recombinant barcode read abundance (log10)
1 | TACGATACTTGGGTTCTAACCTGTTGCGT (site TACGATACTAC) | 1.19
2 | TACGCTCCTTGGGTTCTAACCTGTTGCGT (site TACGCTCCTAA) | 0.0715
3 | TACGCTCCTTGGGTTCTAACCTGTTGCGT (site TACGCTCCTAC) | 0.108
4 | TACGCTCCTTGGGTTCTAACCTGTTGCGT (site TACGCTCCTAG) | 0.0936
5 | TACGCTCCTTGGGTTCTAACCTGTTGCGT (site TACGCTCCTAT) | 0.501
6 | TACGGTCCTTGGGTTCTAACCTGTTGCTT (site TACGGTCCTAA) | 1.08
7 | TACGGTCCTTGGGTTCTAACCTGTTGCTT (site TAGGCTCCTAA) | 0.261
8 | TACGTGGCTTGGGTTCTAACCTGTTGCCT (site TACGAGGCTAG) | 0.182
9 | TACGTGGCTTGGGTTCTAACCTGTTGCCT (site TACGCGGCTAG) | 0.0139
10 | TACGTGGCTTGGGTTCTAACCTGTTGCCT (site TACGGGGCTAG) | 0.502
11 | TACGTGGCTTGGGTTCTAACCTGTTGCCT (site TACGTGGCTAG) | 0.825
12 | TACGTGTCTTGGGTTCTAACCTGTTGCTA (site TACGTGTCTTA) | 2.19
13 | TACGTGTCTTGGGTTCTAACCTGTTGCTA (site TGCGTGTCTCA) | 0.051
14 | TACTAACCTTGGGTTCTAACCTGTTGCCT (site CATTAACCTAG) | 0.0235
15 | TACTAACCTTGGGTTCTAACCTGTTGCCT (site TACTAACCTAG) | 0.752
16 | TACTACCCTTGGGTTCTAACCTGTTGCCA (site TACTACCCTTG) | 0.606
17 | TACTACCCTTGGGTTCTAACCTGTTGCCA (site TAGTATCCTTG) | 0.0944
18 | TACTACCCTTGGGTTCTAACCTGTTGCCT (site TACTACCCTAG) | 1.46
19 | TACTACCCTTGGGTTCTAACCTGTTGCCT (site TCCTACCCTAG) | 0.126
20 | TACTACCCTTGGGTTCTAACCTGTTGCCT (site TGCTACCCTAG) | 0.0397
21 | TACTACCCTTGGGTTCTAACCTGTTGCCT (site TTCTACCCTAG) | 0.0291
22 | TACTGGGCTTGGGTTCTAACCTGTTGCGG (site TACTGGGCTCA) | 0.316

Row | Sequence | recombinant barcode read abundance (log10)
23 | TACTGGGCTTGGGTTCTAACCTGTTGCGG (site TACTGGGCTCC) | 2.2
24 | TACTTACCTTGGGTTCTAACCTGTTGCCT (site TACTTACCTAG) | 0.362
25 | TACTTACCTTGGGTTCTAACCTGTTGCCT (site TTCTTACCTAG) | 0.0922
26 | TACTTAGCTTGGGTTCTAACCTGTTGCCG (site TACTTAGCTCG) | 0.075
27 | TACTTAGCTTGGGTTCTAACCTGTTGCCG (site TAGTTACCTCG) | 0.0382
28 | TAGAACCCTTGGGTTCTAACCTGTTGCTT (site TAGAACCCTAA) | 0.367
29 | TAGAACCCTTGGGTTCTAACCTGTTGCTT (site TAGATCCCTAA) | 0.0967
30 | TAGAACTCTTGGGTTCTAACCTGTTGCCC (site TAGAACTCTAG) | 0.296
31 | TAGAACTCTTGGGTTCTAACCTGTTGCCC (site TAGAACTCTCG) | 0.0614
32 | TAGAACTCTTGGGTTCTAACCTGTTGCCC (site TAGAACTCTGG) | 0.427
33 | TAGAACTCTTGGGTTCTAACCTGTTGCCC (site TAGAACTCTTG) | 0.0327
34 | TAGAACTCTTGGGTTCTAACCTGTTGCGC (site ACATTTCCTAT) | 0.0572
35 | TAGAACTCTTGGGTTCTAACCTGTTGCGC (site TAGAACTCTGC) | 1
36 | TAGAAGCCTTGGGTTCTAACCTGTTGCCG (site TACAAGCCTAG) | 0.0659
37 | TAGAAGCCTTGGGTTCTAACCTGTTGCCG (site TAGAAGCCTCG) | 1.62
38 | TAGAAGGCTTGGGTTCTAACCTGTTGCGT (site TAGAAGGCTAA) | 0.445
39 | TAGAAGGCTTGGGTTCTAACCTGTTGCGT (site TAGAAGGCTAC) | 2.75
40 | TAGAAGGCTTGGGTTCTAACCTGTTGCGT (site TAGAAGGCTAG) | 0.273
41 | TAGAAGGCTTGGGTTCTAACCTGTTGCGT (site TAGAAGGCTAT) | 1.96
42 | TAGAATGCTTGGGTTCTAACCTGTTGCTT (site TAGAATGCTAA) | 0.285
43 | TAGAATGCTTGGGTTCTAACCTGTTGCTT (site TAGAATGCTAG) | 0.148
44 | TAGACATCTTGGGTTCTAACCTGTTGCAT (site AAGACATCTAA) | 0.133

Row | Sequence | recombinant barcode read abundance (log10)
45 | TAGACATCTTGGGTTCTAACCTGTTGCAT (site TAGACATCTAT) | 0.353
46 | TAGACCACTTGGGTTCTAACCTGTTGCAC (site CTATATGCTAA) | 0.0777
47 | TAGACCACTTGGGTTCTAACCTGTTGCAC (site TAGACCACTGT) | 0.954
48 | TAGAGAGCTTGGGTTCTAACCTGTTGCGG (site TAAAGAGCTCC) | 1.57
49 | TAGAGAGCTTGGGTTCTAACCTGTTGCGG (site TACAGAGCTCC) | 0.202
50 | TAGAGAGCTTGGGTTCTAACCTGTTGCGG (site TAGAGAGCTCC) | 2.09
51 | TAGAGAGCTTGGGTTCTAACCTGTTGCGG (site TATAGAGCTCC) | 0.356
52 | TAGAGCTCTTGGGTTCTAACCTGTTGCTG (site TAGAGCTCTCA) | 0.75
53 | TAGAGCTCTTGGGTTCTAACCTGTTGCTG (site TAGTGCTCTGA) | 0.0075
54 | TAGATAACTTGGGTTCTAACCTGTTGCTG (site ACCCATTCTAC) | 0
55 | TAGATAACTTGGGTTCTAACCTGTTGCTG (site TAGATAACTCA) | 1.02
56 | TAGCACTCTTGGGTTCTAACCTGTTGCAG (site AAGCACCCTCT) | 0.0429
57 | TAGCACTCTTGGGTTCTAACCTGTTGCAG (site TAGCACTCTCT) | 2.08
58 | TAGCATACTTGGGTTCTAACCTGTTGCCC (site TAGCATACTAG) | 0.329
59 | TAGCATACTTGGGTTCTAACCTGTTGCCC (site TAGCATACTCG) | 0.266
60 | TAGCATACTTGGGTTCTAACCTGTTGCCC (site TAGCATACTGG) | 0.941
61 | TAGCATACTTGGGTTCTAACCTGTTGCCC (site TAGCATACTTG) | 0.187
62 | TAGCATGCTTGGGTTCTAACCTGTTGCAG (site TAGCATGCTAT) | 0.0261
63 | TAGCATGCTTGGGTTCTAACCTGTTGCAG (site TAGCATGCTCT) | 1.44
64 | TAGCATGCTTGGGTTCTAACCTGTTGCAG (site TAGCATGCTGT) | 0.0603
65 | TAGCATGCTTGGGTTCTAACCTGTTGCAG (site TAGCATGCTTT) | 0.017
66 | TAGCATGCTTGGGTTCTAACCTGTTGCAT (site TAGCATGCTAT) | 0.434
